Reference: the supplement of paper PMC13380429

How the values were obtained:
[1] = system: A549-ACE2 infected with SARS-CoV-2; test: cell count relative to DMSO; higher = less toxic; settings: 24 h
[2] = system: Caco-2; test: cell viability relative to DMSO; higher = less toxic; settings: 72 h
[3] = system: Calu-3; test: as above; settings: 72 h
[4] = system: HepG2; test: as above; settings: 72 h
[5] = system: U2OS; test: as above; settings: 72 h
[6] = system: Vero E6; test: as above; settings: 72 h
[7] = system: A549-ACE2 infected with SARS-CoV-2; test: SARS-CoV-2 infection rate relative to DMSO; higher = more infection; settings: 24 h
[8] = system: A549-ACE2; test: drug-induced phospholipidosis relative to tamoxifen; higher = more phospholipidosis
[9] = system: A549-ACE2 infected with SARS-CoV-2; test: morphology score (similarity to uninfected cells); higher = more like uninfected cells; settings: 24 h
[10] = system: Caco-2; test: relative viability EC50 (midpoint between 100% and the lowest measured viability); higher = less toxic; settings: 72 h
[11] = system: Calu-3; test: as above; settings: 72 h
[12] = system: HepG2; test: as above; settings: 72 h
[13] = system: U2OS; test: as above; settings: 72 h
[14] = system: Vero E6; test: as above; settings: 72 h
[15] = system: Caco-2; test: drug sensitivity score (DSS) for viability; higher = more toxic; extreme values may be limits of the assay; settings: 72 h
[16] = system: Calu-3; test: as above; settings: 72 h
[17] = system: HepG2; test: as above; settings: 72 h
[18] = system: U2OS; test: as above; settings: 72 h
[19] = system: Vero E6; test: as above; settings: 72 h

O=C1/C(=C/c2ccccc2)C[C@@]2(O)[C@H]3Cc4ccc(O)c5c4[C@@]2(CCN3CC2CC2)[C@H]1O5 [BNTX]
Settings	SARS-CoV-2 infection rate, [7] [%]	cell count, [1] [%]	cell viability, [2] [%]	cell viability, [3] [%]	cell viability, [4] [%]	cell viability, [5] [%]	cell viability, [6] [%]	morphology score, [9]
1 nM	–	–	100	99.5	98.3	99.5	105	–
10 nM	–	–	101	95.6	99.3	102	102	–
0.1 µM	94	101	–	–	–	–	–	0.09
100 nM	–	–	91.2	102	110	95.4	103	–
0.3 µM	93	106	–	–	–	–	–	0.34
1 µM	59	108	–	–	–	–	–	0.64
1000 nM	–	–	93.8	109	84.2	97.5	96.2	–
3 µM	11	89	–	–	–	–	–	0.68
10000 nM	–	–	30	13.1	0.5	5.7	0.4	–

drug-induced phospholipidosis [%], [8]
Settings	0.3 µM	0.833333 µM	3.33333 µM	6.66667 µM
24 h	0.73	2.81	24.9	20.5
48 h	0.39	0.51	26	–
72 h	2.04	0.605	–	–

Settings	drug sensitivity score	relative viability EC50 [nM]
[10]	–	2430
[11]	–	3660
[12]	–	1940
[13]	–	2970
[14]	–	2880
[15]	4.9	–
[16]	4.2	–
[17]	8.1	–
[18]	5.6	–
[19]	6.1	–

C=CC(=O)Nc1cccc(C)c1Nc1ncc2cc(-c3c(Cl)c(OC)cc(OC)c3Cl)ccc2n1 [BLU9931]
Settings	SARS-CoV-2 infection rate, [7] [%]	cell count, [1] [%]	cell viability, [2] [%]	cell viability, [3] [%]	cell viability, [4] [%]	cell viability, [5] [%]	cell viability, [6] [%]	morphology score, [9]
1 nM	–	–	103	99.4	102	101	106	–
10 nM	–	–	105	103	108	104	98.8	–
100 nM	–	–	97	97.5	96.3	97.4	99.8	–
0.3 µM	102	106	–	–	–	–	–	0.15
1000 nM	–	–	96.8	101	90.5	104	97.6	–
3 µM	96	99	–	–	–	–	–	0.3
10 µM	77	75	–	–	–	–	–	0.26
10000 nM	–	–	81	53.7	34.2	43.8	85.8	–
30 µM	65	67	–	–	–	–	–	0.43

drug-induced phospholipidosis [%], [8]
Settings	0.3 µM	0.833333 µM	3.33333 µM	6.66667 µM	10 µM	30 µM
24 h	1.97	0.46	11	14.3	20.1	73.6
48 h	2.96	1.66	13.1	–	–	–
72 h	1.37	-1.51	4.02	–	–	–

Settings	drug sensitivity score	relative viability EC50 [nM]
[10]	–	> 10000
[12]	–	2020
[13]	–	3550
[14]	–	> 10000
[15]	0.9	–
[16]	2.3	–
[17]	5.2	–
[18]	2.7	–
[19]	0.4	–

CC1(C)CC[C@]2(NC(=O)C(C)(F)F)CC[C@]3(C)[C@H](C(=O)C=C4[C@@]5(C)C=C(C#N)C(=O)C(C)(C)[C@@H]5CC[C@]43C)[C@@H]2C1 [Omaveloxolone (RTA-408)]
Settings	SARS-CoV-2 infection rate, [7] [%]	cell count, [1] [%]	cell viability, [2] [%]	cell viability, [3] [%]	cell viability, [4] [%]	cell viability, [5] [%]	cell viability, [6] [%]	morphology score, [9]
1 nM	–	–	100	99.6	97.6	96.8	107	–
10 nM	–	–	102	118	91.6	102	108	–
100 nM	–	–	85.7	90.7	83.6	98.7	103	–
0.3 µM	111	97	–	–	–	–	–	-0.26
1000 nM	–	–	32.3	23.6	1.2	1.9	7.7	–
3 µM	0	1	–	–	–	–	–	0.09
10000 nM	–	–	5.4	1.6	-0.3	-0.1	-0.1	–

[8], 0.3 µM
Settings	drug-induced phospholipidosis [%]
24 h	9.83
48 h	10.5
72 h	21.8

Settings	drug sensitivity score	relative viability EC50 [nM]
[10]	–	450
[11]	–	452
[12]	–	192
[13]	–	321
[14]	–	410
[15]	14.5	–
[16]	15.4	–
[17]	20.7	–
[18]	17.9	–
[19]	16.6	–

CCN(CC)CCCC(C)Nc1ccnc2cc(Cl)ccc12 (stereo not given) [chloroquine]
[9]
Settings	morphology score
0.3 µM	0.17
3 µM	0.37
10 µM	0.63
30 µM	0.8

Settings	drug sensitivity score
[16]	0
[17]	0.6
[18]	0

CN1C(=O)/C(=C2/C(=O)Nc3ccccc32)c2ccccc21 [meisoindigo]
Settings	SARS-CoV-2 infection rate, [7] [%]	cell count, [1] [%]	cell viability, [2] [%]	cell viability, [4] [%]	cell viability, [5] [%]	cell viability, [6] [%]	morphology score, [9]
1 nM	–	–	94.4	96.1	98	104	–
10 nM	–	–	104	101	102	102	–
0.1 µM	103	101	–	–	–	–	-0.25
100 nM	–	–	93.1	90.6	97.4	98.8	–
0.3 µM	103	102	–	–	–	–	-0.21
1 µM	102	98	–	–	–	–	-0.24
1000 nM	–	–	87.2	75.5	99	93.7	–
3 µM	97	101	–	–	–	–	-0.12
10000 nM	–	–	73.1	49	90.1	47.7	–

drug-induced phospholipidosis [%], [8]
Settings	0.3 µM	0.833333 µM	3.33333 µM	6.66667 µM	10 µM	30 µM
24 h	-2.39	-5.22	-2.5	-1.79	–	6.15
48 h	-0.22	-2.93	-2.52	0.92	–	4.45
72 h	0.716	-2.02	-1.09	1.04	9.76	5.86

Settings	drug sensitivity score	relative viability EC50 [nM]
[12]	–	868
[13]	–	> 10000
[14]	–	2180
[15]	2.2	–
[17]	5.6	–
[18]	0	–
[19]	3.8	–
